Tested on: lung cancer cell line NCI-H82
Assay: Cell proliferation assay, NCI-H82 (CELL-TITER GLO)
Format: cell-based
Settings: Homo sapiens, NCI-H82, 72 h, NCI-H82 cells, 72 h incubation, cell viability by CELL-TITER GLO, top concentration 1 μM; read-out: EC50, Inhibition of NCl-H82 Cell Proliferation
How it was run: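 NCI-H82 cells, 1,000 per well in RPMI1640, were treated after overnight plating with a 3-fold dilution series from 1 μM. Viability read by CellTiter-Glo luminescence after 72 h. EC50 derived from the curves.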

| Compound | EC50 [nM] |
| --- | --- |
| C#Cc1nc(NC(=O)N[C@@H](CO)C(=O)N2CCC3(CCCCC3)CC2)cs1 [Compound A157, (S)-1-(2-Ethynylthiazol-4-yl)-3-(3-hydroxy-1-oxo-1-(3-azaspiro[5.5]undecan-3-yl)propan-2-yl)urea] | ≤ 200 |
| C#Cc1nc(NC(=O)N[C@@H](CO)C(=O)N2CCC3(CC2)CCC(F)(F)CC3)cs1 [Compound A158, (S)-1-(1-(9,9-Difluoro-3-azaspiro[5.5]undecan-3-yl)-3-hydroxy-1-oxopropan-2-yl)-3-(2-ethynylthiazol-4-yl)urea] | ≤ 200 |
| C#Cc1nc(NC(=O)N[C@@H](CO)C(=O)N2CCC(N3CC(F)(F)C3)CC2)cs1 [Compound A159, (S)-1-(1-(4-(3,3-Difluoroazetidin-1-yl)piperidin-1-yl)-3-hydroxy-1-oxopropan-2-yl)-3-(2-ethynylthiazol-4-yl)urea] | > 5000 |
| C#Cc1nc(NC(=O)N[C@H](CO)C(=O)N2CCC(N3CC(F)(F)C3)CC2)cs1 [Compound A160, (R)-1-(1-(4-(3,3-Difluoroazetidin-1-yl)piperidin-1-yl)-3-hydroxy-1-oxopropan-2-yl)-3-(2-ethynylthiazol-4-yl)urea] | 200 to 1000 |
| C#Cc1nc(NC(=O)N[C@@H](CO)C(=O)N2CCC(F)(F)CC2)cs1 [Compound A161, (S)-1-(1-(4,4-Difluoropiperidin-1-yl)-3-hydroxy-1-oxopropan-2-yl)-3-(2-ethynyl-thiazol-4-yl)urea] | ≤ 200 |
| C#Cc1nc(NC(=O)Nc2ncnc3c(F)c(-c4c(F)cccc4OC)c(Cl)cc23)cs1 [Compound A162, 1-(6-Chloro-8-fluoro-7-(2-fluoro-6-methoxyphenyl)quinazolin-4-yl)-3-(2-ethynylthiazol-4-yl)urea] | ≤ 200 |
| C#Cc1nc(NC(=O)Nc2ncnc3cc(-c4c(O)cccc4F)ccc23)cs1 [Compound A163, 1-(2-Ethynylthiazol-4-yl)-3-(7-(2-fluoro-6-hydroxyphenyl)quinazolin-4-yl)urea] | ≤ 200 |
| C#Cc1nc(NC(=O)Nc2ncnc3c(F)c(-c4cccc5ncsc45)c(Cl)cc23)cs1 [Compound A165, 1-(7-(Benzo[d]thiazol-7-yl)-6-chloro-8-fluoroquinazolin-4-yl)-3-(2-ethynyl-thiazol-4-yl)urea] | ≤ 200 |
| C#Cc1nc(NC(=O)Nc2ncnc3cc(-c4cccnc4C4(C#N)CC4)ccc23)cs1 [Compound A166, 1-(7-(2-(1-Cyanocyclopropyl)pyridin-3-yl)quinazolin-4-yl)-3-(2-ethynylthiazol-4-yl)urea] | ≤ 200 |
| C#Cc1nc(NC(=O)NCc2ccc(-c3cccc(C4(C#N)CC4)c3)cc2)cs1 [Compound A167, 1-((3′-(1-Cyanocyclopropyl)-[1,1′-biphenyl]-4-yl)methyl)-3-(2-ethynylthiazol-4-yl)urea] | ≤ 200 |
| C#Cc1nc(NC(=O)NCc2ccc(-c3cccc(C4(O)CC4)c3)cc2)cs1 [Compound A168, 1-(2-Ethynylthiazol-4-yl)-3-((3′-(1-hydroxycyclopropyl)-[1,1′-biphenyl]-4-yl)methyl)urea] | ≤ 200 |
| C#Cc1nc(NC(=O)NCc2ccc(-c3cccc(C(=O)CC)c3)cc2)cs1 [Compound A169, 1-(2-Ethynylthiazol-4-yl)-3-((3′-propionyl-[1,1′-biphenyl]-4-yl)methyl)urea] | ≤ 200 |
| C#Cc1nc(NC(=O)NCc2ccc(-c3cccc(C4(O)CCC4)c3)cc2)cs1 [Compound A170, 1-(2-Ethynylthiazol-4-yl)-3-((3′-(1-hydroxycyclobutyl)-[1,1′-biphenyl]-4-yl)-methyl)urea] | ≤ 200 |
| C#Cc1nc(NC(=O)NCc2ccc(-c3cccc4nc(N5CC(F)(F)C5)nc(O)c34)cc2)cs1 [Compound A171, 1-(4-(2-(3,3-Difluoroazetidin-1-yl)-4-hydroxyquinazolin-5-yl)benzyl)-3-(2-ethynylthiazol-4-yl)urea] | ≤ 200 |
| C#Cc1nc(NC(=O)NCc2ccc(-c3cccc4nc(OCCO)nc(O)c34)cc2)cs1 [Compound A172, 1-(2-Ethynylthiazol-4-yl)-3-(4-(4-hydroxy-2-(2-hydroxyethoxy)quinazolin-5-yl)-benzyl)urea] | ≤ 200 |

Reference: patent US20240101546A1, “HETEROARYL-ACETYLENES, PHARMACEUTICAL COMPOSITIONS THEREOF, AND THEIR THERAPEUTIC APPLICATIONS” (Eubulus Biotherapeutics Inc., priority 2020, published 2024)
